In patent publication US11873298B2, “Compounds and uses thereof” (JANSSEN PHARMACEUTICA NV, priority 2017, dated 2024):
Several values for one entry are separate records, joined by “and”; a condition that tells them apart may be missing. Equal values may be shown once.

Columns and labels:
Type in all cases: cell-based
SCD1 = target: T1, SCD1 (Homo sapiens, UniProt O00767); assay: Growth inhibition of humanized yeast strain expressing SCD1 as sole desaturase; conditions: humanized yeast strain expressing SCD1
T1 construct: host or cells: S. cerevisiae ole1Δ strain (W303 pdr1Δ pdr3Δ background), plasmid pRS316 with TDH3 promoter and CYC1 terminator
T1 sequence (O00767 1-359): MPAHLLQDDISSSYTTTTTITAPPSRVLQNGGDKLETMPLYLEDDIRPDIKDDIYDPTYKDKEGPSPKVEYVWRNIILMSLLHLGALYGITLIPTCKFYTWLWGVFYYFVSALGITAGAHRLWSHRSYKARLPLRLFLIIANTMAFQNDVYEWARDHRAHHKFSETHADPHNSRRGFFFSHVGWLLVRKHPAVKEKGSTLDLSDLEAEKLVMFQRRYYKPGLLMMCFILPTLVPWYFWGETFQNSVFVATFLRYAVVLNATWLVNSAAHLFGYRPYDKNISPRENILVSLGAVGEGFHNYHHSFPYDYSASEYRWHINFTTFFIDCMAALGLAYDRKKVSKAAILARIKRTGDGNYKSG
How it was run: (§1)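 Plasmid-complemented ole1Δ yeast, drug-pump deleted (pdr1Δ pdr3Δ), depend solely on the introduced Ole1, SCD1 or SCD5 desaturase. Compounds are added from DMSO to cells in uracil-free galactose medium, 2× density 0.02, and OD600 is read after 24 h or 40 h respectively.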

Ole1 = target: T2, Ole1 (Saccharomyces cerevisiae, UniProt P21147); assay: Growth inhibition of yeast strain expressing Ole1 as sole desaturase; conditions: yeast strain expressing Ole1 as sole desaturase
T2 construct: expressed in transfected cells; host or cells: S. cerevisiae ole1Δ strain (W303 pdr1Δ pdr3Δ background), plasmid pRS316 with TDH3 promoter and CYC1 terminator
T2 sequence (P21147 1-510): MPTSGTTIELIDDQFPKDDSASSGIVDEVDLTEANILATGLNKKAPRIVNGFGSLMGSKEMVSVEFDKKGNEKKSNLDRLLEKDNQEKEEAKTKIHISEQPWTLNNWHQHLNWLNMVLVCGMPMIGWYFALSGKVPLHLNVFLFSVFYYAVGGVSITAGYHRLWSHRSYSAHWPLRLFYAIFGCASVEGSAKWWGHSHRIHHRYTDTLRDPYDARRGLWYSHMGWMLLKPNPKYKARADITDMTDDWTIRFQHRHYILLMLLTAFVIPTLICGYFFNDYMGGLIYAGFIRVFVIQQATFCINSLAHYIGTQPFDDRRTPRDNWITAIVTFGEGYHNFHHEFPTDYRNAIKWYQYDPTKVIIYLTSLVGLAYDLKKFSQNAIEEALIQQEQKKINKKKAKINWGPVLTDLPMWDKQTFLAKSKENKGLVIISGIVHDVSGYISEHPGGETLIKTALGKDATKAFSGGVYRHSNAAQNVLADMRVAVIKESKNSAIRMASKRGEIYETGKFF
How it was run: as §1

SCD5 = target: T3, SCD5 (Homo sapiens, UniProt Q86SK9); assay: Growth inhibition of humanized yeast strain expressing SCD5 as sole desaturase; conditions: humanized yeast strain expressing SCD5
T3 construct: host or cells: S. cerevisiae ole1Δ strain (W303 pdr1Δ pdr3Δ background), plasmid pRS316 with TDH3 promoter and CYC1 terminator
T3 sequence (Q86SK9 1-330): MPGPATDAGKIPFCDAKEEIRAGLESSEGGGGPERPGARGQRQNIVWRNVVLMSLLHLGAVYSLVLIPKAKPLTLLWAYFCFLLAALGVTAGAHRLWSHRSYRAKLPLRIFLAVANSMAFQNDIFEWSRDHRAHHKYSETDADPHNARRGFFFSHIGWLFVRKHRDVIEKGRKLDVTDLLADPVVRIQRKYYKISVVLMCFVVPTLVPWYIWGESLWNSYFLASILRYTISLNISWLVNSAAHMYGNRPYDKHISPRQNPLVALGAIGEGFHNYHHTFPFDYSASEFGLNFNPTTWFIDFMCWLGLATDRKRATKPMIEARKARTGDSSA
How it was run: as §1

Compound	IC50 (SCD1)	SCD1 % Max Inhibition (SCD1)	IC50 (Ole1)	OLE1 % Max Inhibition (Ole1)	IC50 (SCD5)	SCD5 % Max Inhibition (SCD5)
CC(C)(CO)n1ncc2ccc(-c3noc(C4CCN(C(=O)CNC(=O)c5ccccc5)CC4)n3)cc21 [Compound 189]	> 45 µM	88.10%	> 45 µM	98.14%	> 45 µM	68.58%
COc1ccc(-c2noc(C3CCN(C(=O)[C@H](NC(=O)c4ccccc4)C4CC4)CC3)n2)cc1OC [Compound 190]	> 45 µM	83.53%	> 45 µM	100.94%	> 45 µM	19.31%
Cc1nn(C)c2cc(-c3noc(C4CCN(C(=O)[C@H](NC(=O)c5ccccc5)C5CC5)CC4)n3)ccc12 [Compound 191]	> 45 µM	81.79%	> 45 µM	89.31%	> 45 µM	6.72%
CCOC(=O)C(C)(C)n1cc2ccc(-c3noc(C4CCN(C(=O)C5CC(=O)N(c6ccccc6)C5)CC4)n3)cc2n1 (centres unmarked) [Compound 193]	> 45 µM	80.72%	> 45 µM	89.35%	> 45 µM	85.76%
CCOC(=O)C(C)(C)n1cc2ccc(-c3noc(C4CCN(C(=O)CNC(=O)c5ccccc5)CC4)n3)cc2n1 [Compound 194]	> 45 µM	74.07%	> 45 µM	60.71%	> 45 µM	63.24%
Cc1nn(C)c2cc(-c3noc(C4CCN(C(=O)C5CC(=O)N(c6ccccn6)C5)CC4)n3)ccc12 (centres unmarked) [Compound 195]	> 45 µM	75.08%	> 45 µM	3.86%	> 45 µM	9.78%
CCOC(=O)C(C)(C)n1ncc2ccc(-c3noc(C4CCN(C(=O)C5CC(=O)N(c6ccccc6)C5)CC4)n3)cc21 (centres unmarked) [Compound 196]	> 45 µM	86.58%	> 45 µM	93.87%	> 45 µM	75.88%
Cc1nn(C)c2cc(-c3noc(C4CCN(C(=O)CNC(=O)c5cccnc5)CC4)n3)ccc12 [Compound 197]	> 45 µM	66.87%	> 45 µM	4.80%	> 45 µM	61.44%
Cc1nn(C)c2cc(-c3noc(C4CCN(C(=O)CNC(=O)c5ccncc5)CC4)n3)ccc12 [Compound 198]	> 45 µM	71.25%	> 45 µM	2.96%	> 45 µM	36.45%
CCOc1cc(-c2noc(C3CCN(C(=O)CNC(=O)c4ccccc4)CC3)n2)ccc1OC [Compound 199]	> 45 µM	27.85%	> 45 µM	24.34%	> 45 µM	3.87%
Cc1nn(C)c2cc(-c3noc(C4CCN(C(=O)CN5Cc6ccccc6C5=O)CC4)n3)cnc12 [Compound 200]	> 45 µM	79.67%	> 45 µM	2.69%	41.1 µM	64.72%
CC(C)(CO)n1cc2ccc(-c3noc(C4CCN(C(=O)C5CC(=O)N(c6ccccc6)C5)CC4)n3)cc2n1 (centres unmarked) [Compound 201]	> 45 µM	79.67%	> 45 µM	85.29%	32.9 µM	65.14%
CC(C)(CO)n1cc2ccc(-c3noc(C4CCN(C(=O)CNC(=O)c5ccccc5)CC4)n3)cc2n1 [Compound 202]	> 45 µM	74.09%	> 45 µM	94.93%	> 45 µM	74.20%
CC(C)(CO)n1ncc2ccc(-c3noc(C4CCN(C(=O)C5CC(=O)N(c6ccccc6)C5)CC4)n3)cc21 (centres unmarked) [Compound 203]	> 45 µM	84.83%	> 45 µM	100.03%	> 45 µM	80.12%
CC(C)c1ccc(C(=O)N2CCC(c3nc(-c4ccc5cnn(C)c5c4)no3)CC2)cc1 [Compound 204]	> 45 µM	30.36% and 21.99%	> 45 µM	79.30% and 50.38%	> 45 µM	0.25% and 2.95%
CC(C)c1cccc(C(=O)N2CCC(c3nc(-c4ccc5cnn(C)c5c4)no3)CC2)c1 [Compound 205]	> 45 µM	31.70%	> 45 µM	94.02%	> 45 µM	1.01%
COc1ccc(N2CC(C(=O)N3CCC(c4nc(-c5ccc6c(C)nn(C)c6c5)no4)CC3)CC2=O)cc1 (centres unmarked) [Compound 206]	> 45 µM	93.66%	> 45 µM	5.25%	> 45 µM	19.89%
Cc1nn(C)c2cc(-c3noc(N4C[C@H]5CN(C(=O)CNC(=O)c6ccccc6)C[C@H]5C4)n3)ccc12 [Compound 207]	> 45 µM	86.42%	> 45 µM	5.39%	> 45 µM	72.56%
Cn1ncc2ccc(-c3noc(C4CCN(C(=O)c5ccnc(-c6ccccc6)c5)CC4)n3)cc21 [Compound 208]	> 45 µM	14.04%	> 45 µM	96.63%	> 45 µM	5.68%
Cc1nn(C)c2cc(-c3noc(C4CCN(C(=O)CNC(=O)c5ccccc5)C4)n3)ccc12 (centres unmarked) [Compound 209]	> 45 µM	101.51%	> 45 µM	3.74%	> 45 µM	78.88%
Cc1nn(C)c2cc(-c3noc(N4CCC(C(=O)N5CCO[C@@H](c6ccccc6)C5)CC4)n3)ccc12 [Compound 210]	> 45 µM	30.48%	> 45 µM	2.27%	> 45 µM	3.39%
Cc1nn(C)c2cc(-c3noc(N4CCC(C(=O)N5CCO[C@H](c6ccccc6)C5)CC4)n3)ccc12 [Compound 211]	> 45 µM	39.99%	> 45 µM	2.65%	> 45 µM	6.95%
Cc1nn(C)c2cc(-c3noc(N4CC5(CN(C(=O)CNC(=O)c6ccccc6)C5)C4)n3)ccc12 [Compound 212]	> 45 µM	76.79%	> 45 µM	100.82%	> 45 µM	76.28%
Cn1ncc2ccc(NC(=O)C3CCN(C(=O)C4CC(=O)N(c5ccccc5)C4)CC3)cc21 (centres unmarked) [Compound 213]	> 45 µM	86.35%	> 45 µM	94.72%	> 45 µM	85.33%
Cn1c(=O)n(C)c2cc(-c3noc(C4CCN(C(=O)[C@@H](CO)NC(=O)c5ccccc5)CC4)n3)ccc21 [Compound 214]	–	65.73%	> 45 µM	15.08%	> 45 µM	74.58%
